Consider 89 compounds from a melting point compilation (Tetko et al.; mined from patent text by program, amines drawn as free bases though some values may be those of a salt).

Structures are written as SMILES.

By melting point is commonly meant the temperature, or range, at which the solid turns liquid. Regarding `COC(=O)c1cc(OCCCCCCOc2ccc(-c3ccccc3)cc2)ccc1O`, the melting point was in the range of 91 to 92 °C.

As to `CCOC(=O)C1=Cc2cc(Cl)cc(C#N)c2OC1C(F)(F)F` (centres undefined), the melting point is 115 to 116 °C.

Compound `COC(=O)/C(=C/c1ccc(OCCN(C)c2nc3ccccc3o2)cc1)OCC(=O)O` displayed a melting point of 111 to 112 °C.

For `COC1CCN(c2cc(NC(=O)OC(C)(C)C)c(NC(=O)CC(=O)c3cccc(C#N)c3)cc2C#Cc2ccccc2)CC1`, the melting point was 97 to 100 °C.

On to `N#Cc1ccc(Cc2ccc(OCC3CCCCC3)cc2)cc1`, for which the melting point was in the range of 104 to 106 °C.

In the case of `Cc1ccc(Cn2[nH]c(N)cc2=O)cc1Cl`, the melting point lay within 130 to 131 °C.

`Cc1ccc(CNCCOc2cccc3[nH]c(=S)[nH]c23)cc1` gave a melting point greater than 250 °C.

Take `O=S1(=O)CCN2CCCC(c3ccc(Oc4cccc(Cl)c4)cc3)C2=N1` (centres undefined): the melting point fell in the range of 165 to 167 °C.

For `Cc1ccc(OC(=O)n2c3c(c(=O)n(C4CCCCO4)c2=O)CCC3)cc1` (centres undefined), the melting point came out at 136 °C.

The compound `CC(C)(C)OC(=O)N1[C@@H](Cc2cccc([Si](C)(C)C)c2)C(=O)O[C@H](c2ccccc2)[C@@H]1c1ccccc1` showed a melting point of 88 to 90 °C.

`CC(C)(C)NC(=O)[C@@H]1CCCN1C(=O)[C@@H](O)[C@H](Cc1ccccc1)NC(=O)[C@H](CC(N)=O)NCc1ccccc1` had a melting point of 96 to 99 °C.

Compound `CCC(C)c1c(OC)ccc2c1oc1ccc(C#N)cc12` (centres undefined) showed a melting point of 80 to 82 °C.

`NC(=O)c1cccc(C(N)=O)c1N`: the melting point is 284 to 288 °C.

Take `C[C@@](O)(C(=O)Nc1ccc(S(=O)(=O)c2ccccc2F)cc1Cl)C(F)(F)F`: the melting point is 90 to 92 °C.

`CCNC(=O)c1c(Cl)ccc(N)c1[Si](C)(C)C` had a melting point of 147 to 149 °C.

In turn, `OC(Cc1nnccc1-c1c(-c2ccccc2)nn2ccccc12)C(Cl)(Cl)Cl` (centres undefined) registered a melting point of 206 to 207 °C.

Consider `CCCn1cc(Cc2ccc(C(=O)OC)cc2OC)c2cc(CCCC(=O)O)ccc21`, for which the melting point lay in the range of 106 to 109 °C.

In the case of `O=NCNC1=Nc2ccc(Cl)cc2C(c2ccccc2F)=NC1`, the melting point lay within 170 to 172 °C.

For `[N-]=[N+]=NC[C@H]1CN(c2ccc(N3CCSCC3)c(F)c2)C(=O)O1`, the melting point is 91.5 to 93 °C.

`BrCc1cccc2c(-c3ccccc3)onc12` registered a melting point of 125 to 126 °C.

The compound `CCOC(=O)c1cccc(-c2cn(C)cc(-c3ccccc3)c2=O)c1` yielded a melting point of 167 to 168 °C.

Consider `COCCOc1cc(N(C)S(=O)(=O)c2cccs2)c2[nH]c(C(=O)O)cc2c1`, for which the melting point is 198 to 199 °C.

For `O=C(O)COc1ccc(C(=O)NCC2CCN(c3ccncc3)CC2)cc1`, the melting point was in the range of 84 to 86 °C.

Regarding `CCCCCCCCCCCC1=NCCN1CCOCCO`, the melting point was 58 to 60 °C.

With `CN(C)Cc1nc2n(n1)-c1cccnc1N(c1ccccc1)C2`, the melting point was in the range of 135 to 139 °C.

For `CC(=O)Nc1c[nH]c(=S)n1C1CCc2ccccc2C1` (centres undefined), the melting point lay within 196 to 200 °C.

Compound `CC(C)(C)OC(=O)NC(Cc1ccc(-c2cccc(CNCC(=O)c3ccccc3)c2)cc1)C(=O)O` (centres undefined) showed a melting point of 80 °C.

On to `O=C(O)C1=CCC2C1C(=O)C2(Cl)Cl` (centres undefined), for which the melting point was in the range of 157 to 160 °C.

`COc1ccc(S(=O)(=O)N2CCc3cccc(-c4ccc([N+](=O)[O-])cc4)c32)cc1`: the melting point is 177 to 178 °C.

`CN1CCN(c2ccc(S(=O)(=O)c3ccccc3)c(N)c2)CC1` returned a melting point of 90 to 93 °C.

As for `CCCC(=O)C1=C(O)CC(c2c(C)c(C)c(C)c(C)c2S(C)(=O)=O)CC1=O` (centres undefined), the melting point amounted to 132 °C.

Regarding `O=C(Nc1cccc(C(F)(F)F)c1)Nc1c(C(=O)O)[nH]c(=O)[nH]c1=O`, the melting point was greater than 300 °C.

As for `Cc1c(-c2ccc([N+](=O)[O-])cc2)sc2[nH]c(=O)n(-c3ccccc3)c(=O)c12`, the melting point is greater than 300 °C.

The compound `O=C(O)c1cc2c(s1)-c1cc(F)ccc1CC2` returned a melting point of 240 to 242 °C.

Take `COc1ccc(CNc2nc(CCCC(=O)O)nc3oc4c(c23)CCCC4)cc1Cl`: the melting point came out at 205 °C.

As for `COc1cc2c(c3c1OC(C)(C)C3)C(c1cccc(N3CCNS3)c1)=NC(C)(C)C2`, the melting point lay within 145 to 147 °C.

As to `O=C(Nc1c[nH]nc1C(=O)NCC(F)(F)F)c1ccccn1`, the melting point was in the range of 235 to 236 °C.

The compound `O=[N+]([O-])c1ccc(OC2CCN(c3ccncc3)CC2)cc1` showed a melting point of 142 °C.

As to `CS(=O)(=O)c1ccc(-c2cnn(CC(F)(F)F)c(=O)c2NC2CCCC2)cc1`, the melting point fell in the range of 134 to 139 °C.

On to `O=S(=O)(c1ccncc1)C1CCNCC1`, for which the melting point lay within 88 to 91 °C.

As to `COC(=O)c1cccc(C(=O)Cc2cccc(Br)n2)c1`, the melting point was 84 to 86 °C.

Take `Cc1oc(-c2ccccc2)nc1CCOc1ccc(CC(C)(C(=O)O)c2ccccc2)cc1` (centres undefined): the melting point fell in the range of 178 to 179 °C.

The compound `CC(=O)c1c(Cl)nc2n(c1=O)CCS2` returned a melting point of 135 to 136 °C.

As for `CCCCCCCCCCCCOc1ccc(C(=O)Oc2ccc(C(=O)OC3CCC(CCC)(CCC)OC3=O)cc2)cc1` (centres undefined), the melting point stood at 91 °C.

Regarding `CCOC(=O)CCNC(=O)CNC(=O)c1csc(NC(=O)NCc2ccccc2)n1`, the melting point turned out to be 187 °C.

`O=C(O)CCC(=O)c1ccc(NC(=O)c2cccc(F)c2)cc1` yielded a melting point of 239 to 241 °C.

`CC(Sc1cc2ccccc2[nH]1)(C(=O)OCc1ccccc1)c1ccccc1` (centres undefined): the melting point was in the range of 102 to 103 °C.

Compound `CCc1nc(CN(C)C(=O)N[C@H](C(=O)N[C@@H](Cc2ccccc2)C[C@H](O)[C@H](Cc2ccccc2)NC(=O)OCc2cncs2)C(C)C)cs1` registered a melting point of 70 to 71 °C.

In the case of `CC(=O)c1cnc2c(NC(=O)c3c(Cl)cccc3Cl)cccc2c1N1CCOCC1`, the melting point lay within 231 to 233 °C.

Take `CNNC(=O)c1ccc(Cl)cc1`: the melting point was 130 to 131 °C.

The compound `CCCNC(=S)NS(=O)(=O)c1cc2c(cc1OC)OCCC2CNC(=O)c1cc(Cl)ccc1OC` (centres undefined) registered a melting point of 183 to 184 °C.

In turn, `COc1ccc2c(c1)CCC1(C)C2=CCC2(C)C(O)CCC12` (centres undefined) returned a melting point of 168 °C.

For `COc1cc2c(cc1OC)CN(CCCOc1ccc(NC(=O)c3cccc4c(=O)c5cccc(OC)c5[nH]c34)c(C)c1)CC2`, the melting point was 160 °C.

Take `Cn1cc(C#N)n(-c2ccc(Cl)cc2)c1=O`: the melting point lay in the range of 149 to 151 °C.

Compound `COc1ccccc1-n1c(=O)[nH]c2c(C(N)=O)nc(-c3ccnc(O)c3)nc21` gave a melting point of 360 to 362 °C.

Compound `O=C(Nc1cccc(Br)c1)NC1N=C(c2ccccc2F)c2ccccc2N(CC(=O)N2CC3CCC(CC3)C2)C1=O` (racemic) gave a melting point of 173 to 186 °C.

On to `CCCCCCCCCCCCCCOc1cc(C)ccc1C`, for which the melting point lay in the range of 36.9 to 37.9 °C.

Compound `CC(=O)Nc1ccc([N+](=O)[O-])c(Cl)c1` yielded a melting point of 134 to 136 °C.

Compound `O=C1C(=O)c2ccc(-c3cccnc3)cc2C2=C1SCC1(CCNCC1)O2` displayed a melting point of 213 to 215 °C.

Take `CC(C)(c1ccncn1)C(O)(Cn1cncn1)c1ccc(F)cc1F` (centres undefined): the melting point is 126 to 127 °C.

Consider `C[C@@H](CNC(=O)OC(C)(C)C)c1ccc(O)c(O)c1`, for which the melting point was 116 to 118 °C.

Compound `COC(=O)C1=C(C)NC(C)=NC1c1ccccc1Cl` (centres undefined) came in with a melting point of 225 to 227 °C.

In turn, `Cc1cc(C)c(N2c3ccccc3S(=O)(=O)c3cc(C=O)ccc32)c(C)c1` yielded a melting point of 194 to 197 °C.

`COc1ccc(C[C@H](NC(=O)OC(C)(C)C)C(=O)c2ccc(O)cc2)cc1` showed a melting point of 133 to 135 °C.

With `OCC1OC(n2ncc3c(SCC=Cc4ccccc4)ncnc32)C(O)C1O` (centres undefined), the melting point lay in the range of 165 to 166 °C.

Turning to `O=S1(=O)CCN2CCCC(c3ccc(Oc4ccc(Cl)cc4)cc3)C2=N1` (centres undefined), the melting point is 215 to 216 °C.

`C=CC(=O)NC(C(=O)OCC)C(=O)OCC`: the melting point was 105 to 106 °C.

For the compound `COc1cccc(OC)c1-c1cc(C(=O)NC2(C(=O)O)C3CC4CC(C3)CC2C4)nn1-c1ccc(C(=O)N(C)CCC(=O)O)cc1C(C)C` (centres undefined), the melting point was in the range of 166 to 168 °C.

Turning to `C[C@@H]1CCCC[C@@H]1Nc1c(C(N)=O)cnc2[nH]c(-c3ccc(F)cc3)cc12`, the melting point was greater than 280 °C.

Regarding `COC(=O)C(c1ccccc1CCl)C(OC)OC` (centres undefined), the melting point fell in the range of 63.5 to 64.5 °C.

As to `Cn1ncc2c(=O)n3c(nc21)SC(C)(C)C3`, the melting point turned out to be 188 °C.

`O=S(=O)(Cl)C=Cc1ccc(C2CCCCC2)c(Br)c1` gave a melting point of 93 to 97 °C.

`COc1ccc2c(c1)CCc1ccc(-c3ccccc3)cc1C21N=C(N)N(C)C1=O` (centres undefined) came in with a melting point of 167 to 171 °C.

`Cc1nc[nH]c1CSCCNC(=N)N[N+](=O)[O-]` displayed a melting point of 146 to 147 °C.

`CC(=NO)C(C)(C)NCC(Cn1ccnc1[N+](=O)[O-])ONC(C)(C)C(C)=NO` (centres undefined) came in with a melting point of 170 to 171 °C.

For the compound `CC1(C)C(=CC=C2C(=O)c3ccccc3C2=C(C#N)C#N)N2CCCc3cccc1c32`, the melting point was determined as 291 °C.

Compound `CCc1nn2ccc3c(c2c1C(C)=O)CCO3` displayed a melting point of 164 to 165 °C.

`CC(C)(C)C(=O)c1cncnc1` came in with a melting point of 64 to 66 °C.

Compound `CCC(=O)C(CCCCCCOc1ccc2c(c1)OCO2)C(=O)CC` registered a melting point of 45 to 46 °C.

Turning to `Cc1cc(=O)n(-c2cccc(Cl)c2)c2[nH]n(-c3ccccc3)c(=O)c12`, the melting point is 278 to 282 °C.

In turn, `CC(NC(=O)OCc1ccccc1)P(C)(=O)O` (centres undefined) displayed a melting point of 118 to 119 °C.

On to `Cc1ccc(S(=O)(=O)OC2CCCC2)cc1`, for which the melting point is less than 30 °C.

For `O=C(O)c1cc(CCl)cnc1C(=O)O`, the melting point lay in the range of 170 to 172 °C.

Compound `O=Cc1cccc2oc(-c3ccccc3)nc12` had a melting point of 116 °C.

For the compound `Cc1c(-c2ccncc2)oc2c1C(=O)C(C)(C)CC2`, the melting point is 133 to 134 °C.

`S=c1[nH]nc(Cc2ccccc2Nc2c(Cl)cccc2Cl)o1` yielded a melting point of 168 to 170 °C.

For the compound `CCc1cccc(NC(=N)Nc2cccc3ccccc23)c1`, the melting point fell in the range of 96 to 98 °C.

`CCCCCCCCC1N(C)c2cccc3cccc(c23)N1C` yielded a melting point of 62 to 63 °C.

Turning to `CCCCCCCCCCCCCCCCCCC1CC(=O)N(c2ccc(N)cc2O)C1=O` (centres undefined), the melting point was in the range of 85 to 90 °C.
